A word on the melting point: it is the temperature, or range, at which the solid turns liquid.

In US20020031816A1, “METHOD OF INHIBITION OF HUMAN GLYCOGEN PHOSPHORYLASE” (priority 1998, published 2002) one finds melting point data, which are given here for six molecules.

In the case of `CCN1C(=O)C(C(=O)Nc2cccc(C(=O)NC3CCCCC3)c2)c2cc(C(C)=O)ccc21` (stereo not drawn) [Preparation 2, 5-Acetyl-1-ethyl-2-oxo-2,3-dihydro-1H-indole-3-carboxylic acid (3-cyclohexylcarbamoyl-phenyl)-amide], the melting point was 180 °C (dec.).

Turning to `CCN1C(=O)C(C(=O)Nc2cccc(C(=O)Nc3ccc(Cl)cc3)c2)c2cc(C(C)=O)ccc21` (stereo not drawn) [Preparation 3, 5-Acetyl-1-ethyl-2-oxo-2,3-dihydro-1H-indole-3-carboxylic acid [3-(4-chloro-phenylcarbamoyl)-phenyl]-amide], the melting point fell in the range of 119 to 121 °C.

Consider `CCN1C(=O)C(C(=O)Nc2cccc(C(=O)Nc3ccc(Br)cc3)c2)c2cc(C(C)=O)ccc21` (stereo not drawn) [Preparation 8, 5-Acetyl-1-ethyl-2-oxo-2,3-dihydro-1H-indole-3-carboxylic acid [3-(4-bromo-phenylcarbamoyl)-phenyl]-amide], for which the melting point lay within 117 to 120 °C.

Turning to `CCN1C(=O)C(C(=O)Nc2cccc(C(=O)Nc3ccc(I)cc3)c2)c2cc(C(C)=O)ccc21` (stereo not drawn) [Preparation 9, 5-Acetyl-1-ethyl-2-oxo-2,3-dihydro-1H-indole-3-carboxylic acid [3-(4-iodo-phenylcarbamoyl)-phenyl]-amide], the melting point is 205 to 210 °C.

For the molecule `CCN1C(=O)C(C(=O)Nc2cccc(C(=O)Nc3ccccc3)c2)c2cc(C(=O)c3ccccc3)ccc21` (stereo not drawn) [Preparation 10, 5-Benzoyl-1-ethyl-2-oxo-2,3-dihydro-1H-indole-3-carboxylic acid (3-phenylcarbamoyl-phenyl)-amide], the melting point is 129 to 135 °C.

The molecule `CC(=O)c1ccc2c(c1)C(C(=O)Nc1cccc(C(=O)Nc3ccccc3)c1)C(=O)N2C` (stereo not drawn) [Preparation 12, 5-Acetyl-1-methyl-2-oxo-2,3-dihydro-1H-indole-3-carboxylic acid (3-phenylcarbamoyl-phenyl)-amide] had a melting point of 178 to 179 °C.
